The values that follow are results of earlier work, collected in patent publication US20140343076A1, “PHARMACEUTICAL COMPOSITIONS OF LURASIDONE” (Cadila Healthcare Limited, priority 2013, published 2014).

Counter-ions that a name gives are not always drawn.

For the compound `O=C1[C@@H]2[C@H]3CC[C@H](C3)[C@@H]2C(=O)N1C[C@@H]1CCCC[C@H]1CN1CCN(c2nsc3ccccc23)CC1` [lurasidone, N-[4-[4-(1,2-benzisothiazol-3-yl)-1-piperazinyl]-(2R,3R)-2,3-tetramethylene-butyl]-(1′R,2′S,3′R,4′S)-2,3-bicyclo[2,2,1]heptanedicarboxyimide hydrochloride], the solubility in water result was “less than several”.
